Test results from patent US7015251B1 (priority 1999, dated 2006).
≈ marks a conversion by molar mass, not a printed value. Entries after “also recorded” stand apart in the source; their conditions may differ.

Experiments:
Jurkat cells [1] = experiment: Jurkat cell proliferation assay (3H-thymidine uptake); format: cell-based, human
Method: Cell Proliferation Assays. […] DNA synthesis was assessed by the addition of ^3H-thymidine (1 μCi/well; specific activity—6.7 Ci/mmol; ICN Pharmaceuticals, Costa Mesa, Calif.) uptake 24 hours before the end of the 72 hour growth period at a final concentration of 1 μCi/well.

Jurkat cells [2] = experiment: Jurkat cell cycle analysis (propidium iodide, FACScan); format: cell-based, human; details: 24 hours
Source text: Cell Cycle Analysis. […] Pie graphs (FIGS. 3A–F) were generated and normalized to a control value of 100%.

Jurkat cells [3] = experiment: Jurkat histologic evaluation (Wright's stain); format: cell-based, human; details: 0.6 and 6.0 ng/ml of paclitaxel alone, 48 hours
Method: Histologic Evaluation. […] Wright's stains of all slides were performed using an automated Hemastainer (Geometric Data, Wayne, Pa.). Slides were analyzed microscopically, photographed (Olympus BH 2, Tokyo, Japan) at 100, 200, and 400 power, and evaluated for morphological changes.

Jurkat cells [4] = experiment: Jurkat TUNEL assay for apoptosis; format: cell-based, human; details: 0.6 ng/ml of paclitaxel, 48 hours
Method: Terminal deoxynucleotide transferase (TdT) mediated deoxyuridine triphosphate (dUTP) nick-end labeling (TUNEL) assay. […] At 24 and 48 hours, DNA strand breaks were labeled with TUNEL assay (In Situ Cell Death Detection Kit, Fluorescein; Boehringer Mannheim, Indianapolis, Ind.), and cellular apoptosis was measured by flow cytometry.

Tu138 cells [5] = experiment: Tu138 MTT dye assay (cytotoxicity, isobologram); details: paclitaxel alone, n=6, 3 days
Method: Tu138, an adherent squamous carcinoma cell line of the head and neck was established at U T M D Anderson Cancer Center, Houston, Tex. (20, 21) and was generously provided by Dr. Gary Clayman's laboratory. Tu138 cells were maintained routinely in T-75 culture flasks (Falcon, Inc., NJ) at a plating cell density of 0.1×10^6 per 75 sq. cm. surface area in complete D-MEM/F-12 culture medium (10 ml) containing 10% fetal bovine serum (FBS, Atlanta Biologicals, Ga.), 2 mM glutamine (Gibco, NY), 50 units/mL penicillin, […] streptomycin (Gibco, NY) and 20 mM Hepes (Sigma, MO) in a 5% CO2 atmosphere at 37° C. Tu138 cells were replenished with fresh complete culture medium twice weekly until confluence.
At the indicated times (24 to 72 hours), cells were subjected to (a) tetrazolium-based dye assay for cell survival measurements, (b) flow cytometry analysis for cell cycle progression and (c) measurements of apoptosis by TUNEL assay.
(22). At the end of an incubation period of 4 hours, culture plates were centrifuged at 300 g for 2 minutes.

Tu138 cells [6] = experiment: Tu138 cell cycle measurements (flow cytometry); format: cell-based, human; details: paclitaxel 600 ng/ml
Method: (§1) At the end of either 24 or 48 hours, cells were trypsinized and washed with the culture medium. For cell cycle measurements, cells were mixed with 0.5 ml of 0.1% propidium iodide solution (New Concepts Scientific Ltd. ON) containing 0.1% sodium citrate and 0.1% NP-40. RNase (1 μg) was added to each sample and cells were incubated at 4° C. for 30 minutes. At least 1×10^4 cells were acquired on a precalibrated FACScan (Beckton Dickinson, Calif.) flow cytometer. For precalibration “DNA QC” (Becton Dickinson, Calif.) kit was utilized. The acquired cells were then subjected to cell cycle analysis by the use of “Modfit LT” software (Beckton Dickinson, Calif.). For measurements of apoptosis, In Situ Cell Death Detection Kit (Boehringer Manheim, Ind.) followed by flow cytometry analysis was utilized.

Tu138 cells [7] = experiment: Tu138 TUNEL assay for apoptosis; format: cell-based, human; details: paclitaxel 600 ng/ml alone
Method: as §1

Tu138 cells [8] = details: paclitaxel 120 μg and/or ceramide 500 μg in cremophore
Source text: The vehicle control consisted of cremophore only at the concentration utilized in the combination treatment.
In a separate experiment nude mice were implanted with 1−2×10^6 Tu138 cells. […] The vehicle control consisted of cremophore only at the concentration utilized in the combination treatment.

HT29 = experiment: MTT dye assay at 72 hrs, HT29; format: cell-based, human; details: Homo sapiens, HT-29; read-out: % Growth Inhibition
Jurkat = experiment: MTT dye assay at 72 hrs, Jurkat; format: cell-based, human; details: Homo sapiens, read-out: % Growth Inhibition
LnCap = experiment: MTT dye assay at 72 hrs, LnCap; format: cell-based, human; details: Homo sapiens, LNCaP; read-out: % Growth Inhibition
PC-3 = experiment: MTT dye assay at 72 hrs, PC-3; format: cell-based, human; details: Homo sapiens, read-out: % Growth Inhibition
RWP-2 = experiment: MTT dye assay at 72 hrs, RWP-2; format: cell-based, human; details: Homo sapiens; read-out: % Growth Inhibition
TU138 = experiment: MTT dye assay at 72 hrs, TU138; format: cell-based, human; details: Homo sapiens; read-out: % Growth Inhibition
tumor cell lines = experiment: MTT dye assay at 72 hrs, tumor cell lines tested (ID50); format: cell-based, human; details: paclitaxel, most tumor cell lines tested
MCF-7 = MCF-7 cell cycle progression; format: cell-based, human
recurrent breast cancer = details: single agent, cited from earlier work
Tu138 tumor = Tu138 tumor in nude mice, intraperitoneal treatment; details: paclitaxel 120 μg and/or ceramide 500 μg, within 4 weeks of administration
Tu138 cell-tumor = experiment: Tu138 tumor in nude mice, subcutaneous treatment near tumor site; details: paclitaxel alone 120 μg/0.1 mL s.c. thrice weekly
Method: To corroborate in vitro findings Tu138 cells were planted subcutaneously on nude mice. […] Tumor size was measured once a week. All groups of mice were sacrificed on day 45 and excised tumors were weighed.

[9] = n=25, 250 mg/m^2, 24 hour infusion every 21 day interval

## CC(=O)O[C@H]1C(=O)[C@@]2(C)[C@H]([C@H](OC(=O)c3ccccc3)[C@]3(O)C[C@H](OC(=O)[C@H](O)[C@@H](NC(=O)c4ccccc4)c4ccccc4)C(C)=C1C3(C)C)[C@]1(OC(C)=O)CO[C@@H]1C[C@@H]2O [Paclitaxel]
Jurkat cells [1]; 10% fetal bovine serum
  concentrations that effectively blocked thymidine incorporation: higher than 0.06 ng/ml
Jurkat cells [1]; Homo sapiens, Jurkat, read-out: growth inhibition
  inhibition at 0.0006 µg/mL: 56.5%
Jurkat cells [1]; Taxol 0.6 ng/ml, Experiment 1
  [3H]thymidine uptake counts ± SD: 52675 ± 7478 cpm
Jurkat cells [1]; Taxol 0.6 ng/ml, Experiment 2
  [3H]thymidine uptake counts ± SD: 95563 ± 6427 cpm
Jurkat cells [1]; Taxol 0.6 ng/ml, Experiment 3
  [3H]thymidine uptake counts ± SD: 22771 ± 5113 cpm
Jurkat cells [1]; Taxol 0.6 ng/ml, Experiment 4
  [3H]thymidine uptake counts ± SD: 89621 ± 17579 cpm
Jurkat cells [1]; Taxol 0.6 ng/ml, Experiment 5
  [3H]thymidine uptake counts ± SD: 98694 ± 32045 cpm
Jurkat cells [1]; Taxol 6.0 ng/ml, Experiment 1
  [3H]thymidine uptake counts ± SD: 16592 ± 782 cpm
Jurkat cells [1]; Taxol 6.0 ng/ml, Experiment 2
  [3H]thymidine uptake counts ± SD: 33443 ± 17976 cpm
Jurkat cells [1]; Taxol 6.0 ng/ml, Experiment 3
  [3H]thymidine uptake counts ± SD: 13400 ± 849 cpm
Jurkat cells [1]; Taxol 6.0 ng/ml, Experiment 4
  [3H]thymidine uptake counts ± SD: 35466 ± 7576 cpm
Jurkat cells [1]; Taxol 6.0 ng/ml, Experiment 5
  [3H]thymidine uptake counts ± SD: 10295 ± 353 cpm
Jurkat cells [1]; paclitaxel alone, n=5, 3-day exposure assay
  ED50 (cell growth inhibition): approximately 0.5 ng/ml
Jurkat cells [1]; paclitaxel alone, serum 10% to 1%
  effect of serum level on growth inhibition: unaffected by variation of serum levels
Jurkat cells [2]; 0.6 and 6.0 ng/ml paclitaxel each
  hypodiploid (sub-G1) cell population: approximately 25%
Jurkat cells [2]; paclitaxel 0.6 ng/ml alone
  cell population in S phase: 31.8%
  decrease of cells in the G0–G1 phase: 13.3%
  total cell population in the G2-M phase: 22.2%
Jurkat cells [2]; paclitaxel 6.0 ng/ml alone
  cell population in S phase: 27%
  decrease of cells in the G0–G1 phase: 23.5%
  total cell population in the G2-M phase: 38.2%
Jurkat cells [2]; paclitaxel 0.6 or 6.0 ng/ml alone
  increase in the G2-M cell population vs untreated control: 2–3 fold
Jurkat cells [3]
  morphological changes (Wright's stain): apoptotic bodies were noted amid cell shrinkage and nuclear and membrane blebbing
Jurkat cells [4]
  apoptosis (TUNEL): 19.6%
Tu138 cells [5]
  ED50 (cytotoxicity, MTT): 1.92 ± 1.2 µg/mL (≈ 2.25 µM)
Tu138 cells [6]; 24 hours
  cells blocked in the G2-M phase: 61.8%
Tu138 cells [6]; 48 hours
  cells blocked in the G2-M phase: 58.2%
Tu138 cells [7]; 24 hours
  apoptosis (TUNEL): 18.4%
Tu138 cells [7]; 48 hours
  apoptosis (TUNEL): 54.8%
Tu138 cells [8]; s.c. near tumor thrice weekly from day 4 for 5 weeks
  Tumor Size (mm^2) at Week 5: 176.0 ± 90.3 mm^2
Tu138 cells [8]; s.c., week 5 (Table 3)
  reduction in tumor growth / tumor size vs vehicle control: 11.1%
HT29
  inhibition at 0.6 µg/mL: 16%
Jurkat
  inhibition at 0.6 µg/mL: 55%
LnCap
  inhibition at 0.6 µg/mL: 13%
PC-3
  inhibition at 0.6 µg/mL: 16%
RWP-2
  inhibition at 0.6 µg/mL: 2%
TU138
  inhibition at 0.6 µg/mL: 10%
Tumor cell lines
  ID50 (cytotoxicity): 0.006 to 0.06 µg/mL
MCF-7; higher than ID50 paclitaxel concentrations
  number of cells in G2/M phase: 38%
MCF-7; lower than ID50 paclitaxel concentrations (0.6–6.0 ng/ml)
  cells blocked in G2/M phase of the cell cycle: greater than 55%
Recurrent breast cancer; 250 mg/m^2
  dose related toxicity: severe
Recurrent breast cancer; [9]
  complete response rate: 12%
  partial response rate: 44%
Tu138 tumor
  tumor size / tumor burden reduction in comparison to control (vehicle): 29%
Tu138 cell-tumor
  tumor growth compared with control: grew aggressively in control and paclitaxel treated mice almost equally; also recorded: equivalent growth
